Here are results for three molecules from US9345696B2, “Methods for treating nicotinic acetylcholine receptor associated diseases” (priority 2010, dated 2016).

The test system of assay [1] is binocular zone of V1 of Lynx1 knockout and wild-type mice. Briefly: Ocular dominance plasticity after short-term monocular deprivation, extracellular recording in vivo (contralateral bias index). Set-up: species or system mouse. Conditions: for effect on adult ocular dominance plasticity in Lynx1 knockout mice (in words): concurrent with short-term MD. How it is done: (§1) Eyelid margins were trimmed by iris scissor and eyes sutured shut under isoflurane anesthesia. Eyes were closed 4-5 days for short term MD (STMD), from P19 to >P60 for long term MD (CP-LTMD), and from P19 to P33 for recovery studies.
Electrophysiological recording was performed under nembutal/chlorprothixene anesthesia using standard techniques for mice (T. K. Hensch et al., Science 282: 1504 (1998); J. A. Gordon, M. P. Stryker, J Neurosci 16: 3274 (1996). Ocular dominance in the binocular zone of each mouse was calculated as a contralateral bias index (CBI): [(n1−n7)+2/3(n2−n6)+⅓(n3−n5)+N]/2N, where N=total number of cells and nx=number of cells corresponding to ocular dominance score of x (J. A. Gordon, M. P. Stryker, J Neurosci 16, 3274 (1996)). For statistical comparison of OD distributions, normalized OD scores of single neurons were plotted as cumulative distribution for each experimental group. OD score was computed by PSTH analysis of peak to baseline spiking activity in response to each eye: {[Peak(ipsi)−baseline(ipsi)]−[Peak(contra)-baseline(contra)]}/{[Peak(ipsi)-baseline(ipsi)]+[Peak(contra)-baseline(contra)]}(T. Pizzorusso et al., Science, 298: 1248 (2002)).

Assay [2] deals with V1 of wild-type mice. Description: Recovery from amblyopia: visual acuity by visual evoked potentials in V1 after long-term MD and eye reopening. Type of assay: in vivo, mouse. Conditions: WT mice.
Excerpt: as §1

`CNC1(C)C2CCC(C2)C1(C)C` (centres unmarked) [mecamylamine]: in assay [1] (adult Lynx1 KO mice), the “effect on adult ocular dominance plasticity in Lynx1 knockout mice (in words)” value is recorded as “sufficient to prevent adult plasticity”. The “contralateral bias index (CBI)” value in assay [1] (adult Lynx1 KO mice, no MD, with mecamylamine) was 0.68; in assay [1] (adult Lynx1 KO mice, short-term MD with concurrent nAChR antagonist (systemic i.p. daily or cortical minipump infusion)), 0.68; in assay [1] (adult WT mice, short-term MD with concurrent mecamylamine), 0.69.
As to `CNC(=O)Oc1ccc2c(c1)[C@]1(C)CCN(C)[C@@H]1N2C` [physostigmine], the “Visual acuity (VEP)” value came out at 0.48±0.06 cyc/deg in assay [2] (LTMD P19 to P33, deprived eye reopened, 0.1 mg/kg i.p. daily from P45, recorded >P60) and 0.47±0.02 cyc/deg in assay [2] (no MD, with AChEI).
`CN1C(=O)CN=C(c2ccccc2)c2cc(Cl)ccc21` [Diazepam]: the “contralateral bias index (CBI)” value in assay [1] (adult Lynx1 KO mice, adult MD, focal infusion into V1 by osmotic minipump) was determined as 0.67. For the same molecule, in assay [1] (adult Lynx1 KO mice), the “effect on adult ocular dominance plasticity in Lynx1 knockout mice (in words)” value is “abolished adult plasticity”.
